# Test results as given in US20240148674A1, “PHARMACEUTICALLY ACCEPTABLE SALTS OF MESDOPETAM AND USES THEREOF” (priority 2020, published 2024).
# Where a name gives a salt, the structure may show the parent alone. Read-outs that look alike come from different tables or passages of the source.
# Legend:
# [1] = Experimental: The temperature was 25° C. using step intervals of 10% between 0% and 95% RH in two consecutive cycles.
# [2] = test system: adverse involuntary movements (AIMs); settings: J. Pharmacol. Exp. Ther. 374: 113-125, July 2020; cited from earlier work
# [3] = test system: unilateral 6-OHDA-lesioned rats; test: Rodent unilateral 6-OHDA lesion model of L-DOPA sensitization, rotation test by ROTORAT; format: in vivo, Sprague Dawley rats; settings: for Contralateral turns, test compound given alone: without L-DOPA, 0-2.5 h
# Experimental: The unilateral 6-OHDA lesion model is an established animal model of Parkinson's disease (see e.g. Exp. Neurol. 194: 66-75 (2005)). The neurotoxin 6-OH-DA is injected in the medial forebrain bundle (MFB), resulting in depletion of dopamine e.g. in the striatum. Upon repeated administration of L-DOPA, the animals with such a lesion display sensitization to L-DOPA, captured by rotational behaviour measured as associated with the development of LIDs. The effects of IRL790 (as a HCl-salt) on fully established AIMs have been published previously (J. Pharmacol. Exp. Ther. 374: 113-125 (2020)). Thus, in this article the administration of IRL790 was […]. […] The co-administration of said test compound with the L-DOPA was not preceded by treatment with L-DOPA. The clinically used antidyskinetic compound amantadine (as a HCl-salt) together with L-DOPA was used for comparison.
# For the evaluation of sensitization to L-DOPA the rodent unilateral 6-OH-DA-lesion model was used. Adult 150˜200 g female Sprague Dawley rats (Charles River) were housed in temperature- and humidity-controlled rooms (20° C., 53% humidity) with a 12 h dark/light cycle. The rats had access to standard food pellets and water ad libitum. The experiments were approved by the local ethical committee at Karolinska Institute (Stockholm North Ethical Committee, N1525/2017) and conducted in accordance with the European Communities Council Directive of 24 Nov. 1986 (86/609/EEC).
# Experimental procedures including unilateral 6-OH-DA-lesions and behavioral assessments were carried as follows. Rats were anesthetized using a mixture of ketamine (100 mg/kg, i.p.; Parke-Davis, Boxmeer, The Netherlands) and xylazine (10 mg/kg, i.p.; Bayer, Kiel, Germany), pretreated with a mixture of desipramine (25 mg/kg, i.p.; Sigma-Aldrich) and pargyline (5 mg/kg, i.p.; Sigma-Aldrich) 30 minutes before lesioning to prevent uptake of 6-OHDA into noradrenergic neurons, and to prevent extracellular metabolism of 6-OHDA, respectively. Rats were placed in a stereotaxic frame (David Kopf Instruments, KOPF®, USA) and injected with temgesic (0.1 mg/kg, s.c., Apoteket, Sweden) before surgery; 2 μl 6-OHDA (5 μg/μl in saline containing 0.02% w/v ascorbic acid, Sigma-Aldrich) was injected into the right MFB, stereotaxic coordinates AP: −2.5 mm, ML: −2.0 mm, DV: −8.5 mm vs. bregma and dural surface (The Rat Brain in Stereotaxic Coordinates 6th Edition, George Paxinos and Charles Watson, 2007) in order to selectively lesion dopaminergic cells in the right brain hemisphere. Post-operative analgesia (Temgesic, s.c.) was administered twice within 48 hours after surgery. Two weeks following surgery, rats were treated with apomorphine (1 mg/kg i.p.; Sigma-Aldrich) to verify successful lesioning. […]
# [4] = test system: immediate early response genes (IEGs) cfos and arc; test: Striatal gene expression analysis by qPCR in 6-OHDA-lesioned rats; format: in vivo
# Experimental: Data is expressed as relative gene expression and was statistically evaluated by two-way ANOVA (analysis of variance).
# Data is expressed as relative gene expression and was statistically evaluated by two-way ANOVA (analysis of variance). * denotes p<0.05, ** denotes p<0.01, and *** denotes p<0.001.
# Whenever L-DOPA was used in this study, it was administered together with benzerazid HCl-salt 7.5 mg/kg i.p, which is a standard procedure when L-DOPA is administered to rats in the unilateral 6-OHDA lesion model. Chronic treatment of four groups of rats was started with either: (1) L-DOPA (10 mg/kg), (2) [2-(3-fluoro-5-methanesulfonyl-phenoxy)ethyl](propyl)amine tartaric acid salt (3 mg/kg s.c.), (3) L-DOPA (10 mg/kg)+[2-(3-fluoro-5-methanesulfonyl-phenoxy)ethyl](propyl)amine tartaric acid salt (3 mg/kg s.c.), or (4) the corresponding vehicle (saline, i.p.) given once daily for 2 weeks. Additionally, two groups of rats were treated with either amantadine HCl salt (40 mg/kg ip), or L-DOPA (10 mg/kg)+amantadine HCl salt (40 mg/kg i.p.), once daily for 14 days. Behavioural assessments were performed on Day 1, Day 7, and Day 14 of chronic treatment. Thus, on Days 1, 7 and 14 contralateral rotations (i.e. rotations in the opposite direction to the side of the 6-OH-DA-lesion) were measured. Contralateral rotations were measured by Rotorat over 2.5 hours after the administration of test compound. […]
# [5] = Hygroscopicity test, weighed samples kept at varied humidity at 30° C. for one week; format: physicochemical; settings: for Weight difference (%): 30° C., one week; for Hygroscopicity, in words: any tested relative humidity
# Experimental: Hygroscopicity test of the L-tartaric salt of [2-(3-fluoro-5-methanesulfonylphenoxy)-ethyl] (propyl)amine was performed by keeping exact weight samples of the salt at varied humidity at 30° C. After one week, the samples were weighed again and based on the original weight the percentage weight difference was calculated.
# [6] = test system: Parkinson's patients with L-DOPA induced dyskinesia (LIDs); test: Human clinical study, 24-hour patient home diaries (good ON time); format: in vivo
# Excerpt: Home diaries have gained wide acceptance as endpoints for clinical development of therapeutics aiming to reduce treatment-related motor complications. Motor fluctuations are associated with compromise in activities of daily living and health-related quality of life. In clinical trials performed by Integrative Research Laboratories Sweden AB patients record their 24-hours motor function in 30-minute intervals, beginning at midnight. For each 30-minute interval the patient rates the state he or she has been in for the past 30 minutes; OFF, ON without troublesome dyskinesia or ON with troublesome dyskinesia. The patient also denoted the time when he or she has been asleep.
# In general, an “OFF” time reduction or “good ON-time” increase of 1 hour may be considered clinically significant and has been used as an assumption in power calculations in clinical trials. Therefore, it can be assumed that shift towards more “good ON-time” of a minimum of 1-hour daily represents a clinically meaningful effect, considering the total time spent in the daily ON state (ON with and without troublesome dyskinesia) is not negatively affected by the treatment.
# A valid diary is defined as not having more than 2 hours of invalid data entries (4 invalid entries) over a given 24-hour period. An invalid diary entry is defined as more than one entry recorded in each half-hour interval, an unreadable entry, or the absence of an entry in each half-hour interval. The average diary information from 3 valid diaries (if available) for each visit will be used to calculate diary-based efficacy endpoints. If there are only 2 valid diaries for a visit, then the average information from the 2 valid diaries will be used. If only one diary is valid, information from the single valid diary will be used. If no valid diaries were available for a patient visit, then the diary information was considered missing.
# At run-in and following treatment patients were asked to complete home diaries describing their motor status in 30-minute intervals for 24 hours. […]
# [7] = as disclosed in PCT/EP2020/064046; cited from earlier work
# [8] = once daily 2 weeks, Example 7 3 mg/kg s.c., amantadine HCl salt 40 mg/kg i.p., Day 1, 7, 14
structure (smiles),measurement,setting,value
"CCCNCCOc1cc(F)cc(S(C)(=O)=O)c1.Cl [Example 1 of WO 2012/143337, hydrochloric acid salt of [2-(3-fluoro-5-methanesulfonylphenoxy)-ethyl](propyl)amine]",Weight gained,"[1]; 95% relative humidity and 25° C., DVS",approximately 3%
same,"Hygroscopicity, in words",[1]; high relative humidities,hygroscopic at high relative humidities
"CCCNCCOc1cc(F)cc(S(C)(=O)=O)c1 [Example 2, [2-(3-fluoro-5-methanesulfonylphenoxy)ethyl](propyl)amine]",Adverse involuntary movements (AIMs),[2],dose-dependently reduced
"CCCNCCOc1cc(F)cc(S(C)(=O)=O)c1 [Example 7, L-tartaric Acid Salt of [2-(3-fluoro-5-methanesulfonylphenoxy)ethyl](propyl)amine]","Contralateral rotational behavior Day 7 or Day 14 vs Day 1, co-treated with L-DOPA (sensitization)","[3]; co-administered with L-DOPA 10 mg/kg once daily 2 weeks, Example 7 3 mg/kg s.c., amantadine HCl salt 40 mg/kg i.p.",no significant difference
same,"Contralateral turns, test compound given alone",[3]; [8],no contralateral turns
same,Effect on L-DOPA-induced increase of striatal cfos and arc expression,"[4]; combination with L-DOPA, 14 days, Example 7 3 mg/kg",attenuated
same,Weight difference (%),[5]; Relative Humidity 0 %,−0.26%
same,Weight difference (%),[5]; Relative Humidity 6 %,0.00%
same,Weight difference (%),[5]; Relative Humidity 11 %,−0.06%
same,Weight difference (%),[5]; Relative Humidity 22 %,0.12%
same,Weight difference (%),[5]; Relative Humidity 33 %,−0.18%
same,Weight difference (%),[5]; Relative Humidity 45 %,−0.13%
same,Weight difference (%),[5]; Relative Humidity 56 %,−0.15%
same,Weight difference (%),[5]; Relative Humidity 73 %,−0.24%
same,Weight difference (%),[5]; Relative Humidity 75 %,−0.07%
same,Weight difference (%),[5]; Relative Humidity 83 %,0.06%
same,Weight difference (%),[5]; Relative Humidity 97 %,−0.08%
same,"Hygroscopicity, in words",[5],very low hygroscopicity
same,"Hygroscopicity, in words",[5]; listed as L-tartaric acid salt,not hygroscopic at any relative humidities
same,Improvement in good ON time (mean values),"[6]; 5 mg or less (2.5 mg in some patients) twice-daily (b.i.d.), 9 patients",2.1 h
same,Improvement in good ON time (mean values),"[6]; 7.5 mg twice-daily (b.i.d.), 8 patients",5.6 h
same,Improvement in good ON time (mean values),"[6]; 10 mg or more (12.5 mg in some patients) twice-daily (b.i.d.), 20 patients",1.4 h
"N[C@@H](Cc1ccc(O)c(O)c1)C(=O)O [L-DOPA, L-3,4-dihydroxyphenylalanine, reference compound]","Contralateral rotational behavior over time, L-DOPA alone","[3]; L-DOPA 10 mg/kg with benzerazid 7.5 mg/kg i.p., once daily 2 weeks, Day 1, 7, 14",increasing contralateral rotational behavior
same,"Striatal expression of IEGs cfos and arc, L-DOPA treatment","[4]; L-DOPA, 14 days of treatment, relative gene expression",significantly increased
"NC12CC3CC(CC(C3)C1)C2 [amantadine HCl salt, amantadine, reference compound]","Contralateral turns, test compound given alone",[3]; [8],no contralateral turns
CCCNCCOc1cc(F)cc(S(C)(=O)=O)c1 [tartaric acid salt of [2-(3-fluoro-5-methanesulfonylphenoxy)-ethyl] (propyl)amine],"Hygroscopicity, in words",[7],non-hygroscopic
